Measured values reported in article PMC7377361, “Pressurized DNA state inside herpes capsids—A novel antiviral target” (PLoS Pathogens, 2020).

Assay: In vivo toxicity studies in mice (NIH/NIAID preclinical service)
Details: for %Lymphocyte / Hematocrit / WBC / AST / Alb:Glob Ratio / Albumin / Amylase / Bile Acids / Cholesterol / Creatine Kinase / GGT / Globin / Total Protein / Triglyceride / BUN / Ca:Phos Ratio / Calcium / Chloride / Glucose / K / Na / Na:K Ratio / Phosphorus / Uric Acid: Mean; for %Lymphocyte / Hematocrit / WBC: CBC (n=1-2); for AST / Alb:Glob Ratio / Albumin / Amylase / Bile Acids / Cholesterol / Creatine Kinase / GGT / Globin / Total Protein / Triglyceride: LIVER (n=5); for BUN / Ca:Phos Ratio / Calcium / Chloride / Glucose / K / Na / Na:K Ratio / Phosphorus / Uric Acid: RENAL (n=5)
Experimental: A control group was treated with PBS. […] No signs of distress or significant weight loss were observed during the 4 days of treatment. […]
B. In vivo toxicity studies in mice for bPEI 600 and DAB-Am-4. Experiments were conducted through NIAID/NIH preclinical service agreement No HHSN272201700017I/ […]
Procedures and Endpoints:
1- Baseline weights of all mice
2- IP treatment (twice a day, for 4 days)
3- Daily assessment of weights and condition
4- All animals sacrificed the following morning after the last evening treatment 5- Blood samples collected by IC stick for lab tests (liver, spleen and blood profiles) 6- Internal organs examined for signs of gross tissue toxicity
1. Toxicity evaluation of bPEI 600 Da in mice.
A toxicity screen was performed in uninfected mice treated with 3 doses of bPEI 600 Da, administered for 4 days. In this study, 3 doses of 5, 10 and 25 mg/kg/day were administered twice daily IP for 4 days (n=4/group). A control group was treated with the vehicle (PBS). The mice were examined daily and the weights and general condition were recorded daily. To examine liver, renal and blood function parameters, blood samples were obtained by intracardiac puncture at the end of the study (the following day after last dose) and the mice were sacrificed to examine the internal organs for signs of gross tissue toxicity.
The weights were recorded
In order to confirm the results of the lab results obtained in the toxicity study, a second group of slightly larger mice were treated with the high and the low doses of bPEI 600 Da (25 mg/kg and 5 mg/kg, n=6/group) and the vehicle control (PBS, n=4) for 4 days. Blood samples were collected at the end of the study for liver and renal chemistry profiles. The results are shown in the next […]
REN AL PBS 5 mg/kg 25 mg/kg
LIVER PBS 5 mg/kg 25 mg/kg
Al b:Gl ob R a ti o 1 1 1 […]
obtained from the second group of mice treated with bPEI 600 Da for 4 days.
No signs of distress or significant weight loss were ere observed during the […]
show significant differences with the results obtained in the PBS treated group of control mice.
Statistical analysis: Means were compared by Student’s t test, and mortality was compared by Fisher’s exact test, where applicable.
Ethics regulation of Laboratory animals: Animals were housed in facilities approved by the Association for Assessment and Accreditation of Laboratory Animal Care and Use Committee
2. Toxicity evaluation of DAB-Am-4 in mice.
A toxicity screen in uninfected mice was performed. 2 doses of 5 and 25 mg/kg/day were administered twice daily IP for 4 days (n=6/group). A control group was treated with the vehicle […]
The mice were examined daily and the weights and general condition were recorded. […]

[1] = mice, 25 mg/kg/day twice daily IP, 4 days
[2] = mice, 5 mg/kg/day twice daily IP, 4 days

NCCCN(CCCN)CCCCN(CCCN)CCCN [DAB-Am-4]
weight loss [1]: ~ 10% | weight loss from baseline [1]: 2.0 g | tolerability (mice, 5, 10 and 25 mg/kg/day, twice daily IP, 4 days): tolerated well | signs of acute toxicity (lab tests) (mice, 5 and 25 mg/kg/day DAB-Am-4, 5 mg/kg/day DAB-Am-8): no conclusive signs of acute toxicity | signs of distress during the observation period (mice, low dose 5 mg/kg/day): no significant signs | %Lymphocyte [2]: 67% | Hematocrit [2]: 43 | WBC [2]: 7 | AST [2]: 402 | Alb:Glob Ratio [2]: 1 | Albumin [2]: 3 | Amylase [2]: 792 | Bile Acids [2]: 134 | Cholesterol [2]: 91 | Creatine Kinase [2]: 2340 | GGT [2]: < 1 | Globin [2]: 2 | Total Protein [2]: 5 | Triglyceride [2]: 118 | BUN [2]: 35 | Ca:Phos Ratio [2]: 1 | Calcium [2]: 9 | Chloride [2]: 104 | Glucose [2]: 221 | K [2]: 7 | Na [2]: 143 | Na:K Ratio [2]: 22 | Phosphorus [2]: 11 | Uric Acid [2]: 3 | %Lymphocyte [1]: 61% | Hematocrit [1]: 36 | WBC [1]: 4 | AST [1]: 414 | Alb:Glob Ratio [1]: 1 | Albumin [1]: 3 | Amylase [1]: 760 | Bile Acids [1]: 13 | Cholesterol [1]: 85 | Creatine Kinase [1]: 3089 | GGT [1]: < 1 | Globin [1]: 2 | Total Protein [1]: 5 | Triglyceride [1]: 149 | BUN [1]: 36 | Ca:Phos Ratio [1]: 1 | Calcium [1]: 9 | Chloride [1]: 106 | Glucose [1]: 182 | K [1]: 6 | Na [1]: 147 | Na:K Ratio [1]: 25 | Phosphorus [1]: 9 | Uric Acid [1]: 5
